Measured values published in patent US20240081328A1, “Use of 4-Nitro-3-(Trifluoromethyl)Phenol in Killing or Controlling Pomacea Canaliculata, Method for Killing or Controlling Pomacea Canaliculata, and Molluscicide” (priority 2021, published 2024).
Like-named read-outs stand apart in the source and are kept apart here.

Test system: Pomacea canaliculata
Test: Immersion test of dilutions in beakers, mortality rate of Pomacea canaliculata
Type: in vivo
Settings: for mortality at 0.0039 µg/mL / mortality at 0.0078 µg/mL / mortality at 0.0156 µg/mL / mortality at 0.0312 µg/mL / mortality at 0.0625 µg/mL / mortality at 0.125 µg/mL / mortality at 0.25 µg/mL / mortality at 0.5 µg/mL: Pomacea canaliculata, read-out: Mortality rate (%) of Pomacea canaliculata at different action time (h); for mortality at 0.0039 µg/mL: 0.0039 mg/L; for mortality at 0.0078 µg/mL: 0.0078 mg/L; for mortality at 0.0156 µg/mL: 0.0156 mg/L; for mortality at 0.0312 µg/mL: 0.0312 mg/L; for mortality at 0.125 µg/mL: 0.125 mg/L; for mortality at 0.25 µg/mL: 0.25 mg/L; for mortality at 0.5 µg/mL: 0.5 mg/L
Experimental: 0.5 mg of 4-nitro-3-(trifluoromethyl)phenol and 0.5 mg of niclosamide were completely dissolved in 1 mL of a dimethyl sulfoxide (DMSO) solution separately, and diluted to 1,000 mL with deaminized water to obtain a 4-nitro-3-(trifluoromethyl)phenol solution with a concentration of 0.5 mg/L and a niclosamide solution with a concentration of 0.5 mg/L.
The two solutions were separately diluted into 7 concentrations of dilutions using a doubling dilution method, including 0.25 mg/L, 0.125 mg/L, 0.0625 mg/L, 0.0312 mg/L, 0.0156 mg/L, and 0.0078 mg/L, and 0.0039 mg/L.
400 mL of the dilutions with different concentrations were separately poured into a 500 mL beaker, 10 Pomacea canaliculata samples were put into the dilution of each concentration, and each bottle mouth was sealed with wire mesh to completely immerse the Pomacea canaliculata in the dilution; clear water was used as a control group.
The experimental data were used to calculate the mortality rate of each treatment according to the following formula. Each calculation result was rounded to two decimal places. A formula for calculating the mortality rate was: […]
In the formula: P represented the mortality rate, in percentage (%); Σ^Ki represented • the number of dead Pomacea canaliculata, in snails; Σ^Ni represented the total number of treated Pomacea canaliculata, in snails.

`O=[N+]([O-])c1ccc(O)cc1C(F)(F)F` [4-nitro-3-(trifluoromethyl)phenol] was tested, and the “killing of Pomacea canaliculata (in words)” value (0.0625 mg/L, action time of 24 h) was “could kill all Pomacea canaliculata”, the mortality at 0.0039 µg/mL (action time 0 h) was 0% and the mortality at 0.0039 µg/mL (action time 12 h) was 0%. The mortality at 0.0039 µg/mL (action time 24 h) was 20%, the mortality at 0.0039 µg/mL (action time 36 h) was 50% and the mortality at 0.0039 µg/mL (action time 48 h) was 50%. It also gave a mortality at 0.0039 µg/mL (action time 60 h) of 50%, a mortality at 0.0039 µg/mL (action time 72 h) of 70% and a mortality at 0.0078 µg/mL (action time 0 h) of 0%. For the same compound, the mortality at 0.0078 µg/mL (action time 12 h) was 0%, the mortality at 0.0078 µg/mL (action time 24 h) was 40% and the mortality at 0.0078 µg/mL (action time 36 h) was 100%. It also gave a mortality at 0.0078 µg/mL (action time 48 h) of 100%, a mortality at 0.0078 µg/mL (action time 60 h) of 100% and a mortality at 0.0078 µg/mL (action time 72 h) of 100%. The mortality at 0.0156 µg/mL (action time 0 h) was 0%, the mortality at 0.0156 µg/mL (action time 12 h) was 10% and the mortality at 0.0156 µg/mL (action time 24 h) was 100%. The mortality at 0.0156 µg/mL (action time 36 h) was 100%, the mortality at 0.0156 µg/mL (action time 48 h) was 100% and the mortality at 0.0156 µg/mL (action time 60 h) was 100%. The mortality at 0.0156 µg/mL (action time 72 h) was 100%, the mortality at 0.0312 µg/mL (action time 0 h) was 0% and the mortality at 0.0312 µg/mL (action time 12 h) was 30%. For the same compound, the mortality at 0.0312 µg/mL (action time 24 h) was 100%, the mortality at 0.0312 µg/mL (action time 36 h) was 100% and the mortality at 0.0312 µg/mL (action time 48 h) was 100%. The mortality at 0.0312 µg/mL (action time 60 h) was 100%, the mortality at 0.0312 µg/mL (action time 72 h) was 100% and the mortality at 0.0625 µg/mL (0.0625 mg/L, action time 0 h) was 0%. The mortality at 0.0625 µg/mL (0.0625 mg/L, action time 12 h) was 70%, the mortality at 0.0625 µg/mL (0.0625 mg/L, action time 24 h) was 100% and the mortality at 0.0625 µg/mL (0.0625 mg/L, action time 36 h) was 100%. The mortality at 0.0625 µg/mL (0.0625 mg/L, action time 48 h) was 100%, the mortality at 0.0625 µg/mL (0.0625 mg/L, action time 60 h) was 100% and the mortality at 0.0625 µg/mL (0.0625 mg/L, action time 72 h) was 100%. The mortality at 0.125 µg/mL (action time 0 h) was 0%, the mortality at 0.125 µg/mL (action time 12 h) was 100% and the mortality at 0.125 µg/mL (action time 24 h) was 100%. The mortality at 0.125 µg/mL (action time 36 h) was 100%, the mortality at 0.125 µg/mL (action time 48 h) was 100% and the mortality at 0.125 µg/mL (action time 60 h) was 100%. For the same compound, the mortality at 0.125 µg/mL (action time 72 h) was 100%, the mortality at 0.25 µg/mL (action time 0 h) was 0% and the mortality at 0.25 µg/mL (action time 12 h) was 100%. For the same compound, the mortality at 0.25 µg/mL (action time 24 h) was 100%, the mortality at 0.25 µg/mL (action time 36 h) was 100% and the mortality at 0.25 µg/mL (action time 48 h) was 100%. For the same compound, the mortality at 0.25 µg/mL (action time 60 h) was 100%, the mortality at 0.25 µg/mL (action time 72 h) was 100% and the mortality at 0.5 µg/mL (action time 0 h) was 0%. The mortality at 0.5 µg/mL (action time 12 h) was 100%, the mortality at 0.5 µg/mL (action time 24 h) was 100% and the mortality at 0.5 µg/mL (action time 36 h) was 100%. It also gave a mortality at 0.5 µg/mL (action time 48 h) of 100%, a mortality at 0.5 µg/mL (action time 60 h) of 100% and a mortality at 0.5 µg/mL (action time 72 h) of 100%. For the same compound, the “Pomacea canaliculata killing activity / control effect compared with niclosamide” value (overall conclusion from Tables 2 and 3) was “comparable to that of the niclosamide” and the “killing effect on the Pomacea canaliculata (in words)” value (overall conclusion from the examples) was “obvious killing effect”.
